Two compounds from patent US5169634A, “Pharmaceutical dosage form for the medication of fish” (priority 1988, dated 1992) can be followed below.

Holding throughout (assay type): cell-based
In assay [1] the test system is Vibrio anguillarum, serotype 1. As to the kind of experiment: Minimal inhibitory concentration, Vibrio anguillarum, serotype 1.
For assay [2], the system named is Yersinia ruckeri, serotype 2. As to the kind of experiment: Minimal inhibitory concentration, Yersinia ruckeri, serotype 2.
A further assay relates to Vibrio salmonicidia. As to the kind of experiment: Minimal inhibitory concentration, Vibrio salmonicidia.
The subject of assay [3] is Yersinia ruckeri, serotype 3. In words: Minimal inhibitory concentration, Yersinia ruckeri, serotype 3.

SMILES strings stand for the structures.

`CC1CCc2cc(F)cc3c(=O)c(C(=O)O)cn1c23` (centres unmarked) [Flumequine, flumequine]: the “Minimal Inhibitory Concentration” value in assay [1] was found to be 0.035; in assay [2] it was 1.2; in the assay with Vibrio salmonicidia it was 0.035; in assay [3], 0.25.

As to `CCn1cc(C(=O)O)c(=O)c2cc3c(cc21)OCO3` [Oxolinic Acid, oxolinic acid], the “Minimal Inhibitory Concentration” value in assay [1] amounted to 0.035; in assay [2] it was 1.0; with Vibrio salmonicidia it was 0.07; in assay [3], 0.25.
